The target in this test is ROCK2 protein (Homo sapiens, UniProt O75116). Briefly: Degradation inducing activity of ROCK2 protein in HUVEC cells, Western blotting (Simple Western JESS). The format is cell-based. On the set-up: endogenous in cells; host or cells: HUVEC (ATCC CRL-1730). The conditions noted are these: HUVEC, 24 h; for inhibition at 1 µM: degradation rate at 1 µM; for inhibition at 10 µM: degradation rate at 10 µM. In outline: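 HUVEC cells treated 24 h with compound at 10 µM or 1 µM, then lysed; ROCK2 quantified by capillary Western (Simple Western JESS) using rabbit mAb D1B1, normalized to total loaded protein. Degradation rate (%) calculated relative to DMSO control set at 100%, binned A ≥75%, B 50–75%, C 25–50%, D <25%.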
(In general: Immunoblotting shows a protein as a band on a membrane.)

Sequence of ROCK2 protein (O75116 whole entry): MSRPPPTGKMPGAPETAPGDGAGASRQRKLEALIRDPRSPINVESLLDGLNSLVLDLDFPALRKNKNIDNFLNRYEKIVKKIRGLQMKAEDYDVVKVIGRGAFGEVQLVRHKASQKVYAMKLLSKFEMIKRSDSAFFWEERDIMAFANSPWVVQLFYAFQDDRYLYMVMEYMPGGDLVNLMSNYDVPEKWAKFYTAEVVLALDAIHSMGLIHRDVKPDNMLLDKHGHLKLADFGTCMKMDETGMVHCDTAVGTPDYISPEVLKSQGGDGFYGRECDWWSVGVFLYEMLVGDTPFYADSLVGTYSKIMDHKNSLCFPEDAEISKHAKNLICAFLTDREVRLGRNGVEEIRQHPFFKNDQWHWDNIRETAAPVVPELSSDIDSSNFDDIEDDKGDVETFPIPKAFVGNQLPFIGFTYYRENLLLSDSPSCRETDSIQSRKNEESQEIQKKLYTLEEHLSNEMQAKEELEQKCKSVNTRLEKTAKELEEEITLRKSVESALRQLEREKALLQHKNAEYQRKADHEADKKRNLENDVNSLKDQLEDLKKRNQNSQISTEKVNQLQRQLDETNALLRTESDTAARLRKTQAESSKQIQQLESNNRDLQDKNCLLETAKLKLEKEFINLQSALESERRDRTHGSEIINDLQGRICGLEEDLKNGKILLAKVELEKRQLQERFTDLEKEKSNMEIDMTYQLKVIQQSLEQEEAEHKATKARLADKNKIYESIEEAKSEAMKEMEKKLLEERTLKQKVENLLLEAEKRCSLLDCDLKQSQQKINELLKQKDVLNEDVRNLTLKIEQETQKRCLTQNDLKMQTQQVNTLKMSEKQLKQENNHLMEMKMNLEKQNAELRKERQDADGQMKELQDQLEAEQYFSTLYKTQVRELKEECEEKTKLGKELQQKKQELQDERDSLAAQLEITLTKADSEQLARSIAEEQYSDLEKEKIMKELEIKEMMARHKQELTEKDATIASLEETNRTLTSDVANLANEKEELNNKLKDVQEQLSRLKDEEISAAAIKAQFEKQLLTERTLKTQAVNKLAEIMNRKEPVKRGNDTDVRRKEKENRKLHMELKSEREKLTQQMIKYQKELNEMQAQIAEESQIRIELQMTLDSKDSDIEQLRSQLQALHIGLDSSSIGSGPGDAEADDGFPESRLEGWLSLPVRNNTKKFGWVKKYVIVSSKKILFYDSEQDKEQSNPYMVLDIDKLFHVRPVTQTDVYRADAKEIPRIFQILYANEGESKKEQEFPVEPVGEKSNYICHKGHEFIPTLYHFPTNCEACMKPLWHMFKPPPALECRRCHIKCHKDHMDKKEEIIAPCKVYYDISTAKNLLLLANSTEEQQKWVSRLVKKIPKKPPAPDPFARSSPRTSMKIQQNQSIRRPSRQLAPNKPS

In general, inhibition refers to the share of the control response that was lost under treatment. A high value points to a strong effect. Regarding `COC[C@H]1CN[C@H](C)CN1CC(=O)N1CC(C)(C)c2ncc(Cc3ccccc3OCCOCCOCCOCCOCCOCCOCCN[C@H](C)c3ccc(C(=O)Nc4ccncc4)cc3)cc21` [Example 69, 4-((R)-23-(2-((1-(2-((2R,5R)-2-(Methoxymethyl)-5-methylpiperazin-1-yl)acetyl)-3,3-dimethyl-2,3-dihydro-1H-pyrrolo[3,2-b]pyridin-6-yl)methyl)phenoxy)-6,9,12,15,18,21-hexaoxa-3-azatricosan-2-yl)-N-(pyridin-4-yl)benzamide], the inhibition at 1 µM was at least 75% and the inhibition at 10 µM is at least 75%.
Compound `COC[C@H]1CN[C@H](C)CN1CC(=O)N1CC(C)(C)c2ncc(Cc3ccccc3OCCOCCOCCOCCOCCOCCOCCOCCN[C@H](C)c3ccc(C(=O)Nc4ccncc4)cc3)cc21` [Example 70, 4-((R)-26-(2-((1-(2-((2R,5R)-2-(Methoxymethyl)-5-methylpiperazin-1-yl)acetyl)-3,3-dimethyl-2,3-dihydro-1H-pyrrolo[3,2-b]pyridin-6-yl)methyl)phenoxy)-6,9,12,15,18,21,24-heptaoxa-3-azahexacosan-2-yl)-N-(pyridin-4-yl)benzamide] yielded an inhibition at 1 µM of at least 75% and an inhibition at 10 µM of at least 75%.
Compound `COC[C@H]1CN[C@H](C)CN1CC(=O)N1CC(C)(C)c2ncc(Cc3ccccc3OCCOCCN[C@H](Cc3cccc(F)c3)C(=O)Nc3ccc(-c4ccncc4)cc3)cc21` [Example 71, (R)-3-(3-Fluorophenyl)-2-((2-(2-(2-((1-(2-((2R,5R)-2-(methoxymethyl)-5-methylpiperazin-1-yl)acetyl)-3,3-dimethyl-2,3-dihydro-1H-pyrrolo[3,2-b]pyridin-6-yl)methyl)phenoxy)ethoxy)ethyl)amino)-N-(4-(pyridin-4-yl)phenyl)propanamide] registered an inhibition at 1 µM of 25 to 50% and an inhibition at 10 µM of under 25%.
Taken in the same sequence, the figures for `COC[C@H]1CN[C@H](C)CN1CC(=O)N1CC(C)(C)c2ncc(Cc3ccccc3OCCOCCOCCN[C@H](Cc3cccc(F)c3)C(=O)Nc3ccc(-c4ccncc4)cc3)cc21` [Example 72, (R)-3-(3-Fluorophenyl)-2-((2-(2-(2-(2-((1-(2-((2R,5R)-2-(methoxymethyl)-5-methylpiperazin-1-yl)acetyl)-3,3-dimethyl-2,3-dihydro-1H-pyrrolo[3,2-b]pyridin-6-yl)methyl)phenoxy)ethoxy)ethoxy)ethyl)amino)-N-(4-(pyridin-4-yl)phenyl)propanamide] were under 25% and at least 75%.
With `COC[C@H]1CN[C@H](C)CN1CC(=O)N1CC(C)(C)c2ncc(Cc3ccccc3OCCOCCOCCOCCN[C@H](Cc3cccc(F)c3)C(=O)Nc3ccc(-c4ccncc4)cc3)cc21` [Example 73, (R)-2-(3-Fluorobenzyl)-14-(2-((1-(2-((2R,5R)-2-(methoxymethyl)-5-methylpiperazin-1-yl)acetyl)-3,3-dimethyl-2,3-dihydro-1H-pyrrolo[3,2-b]pyridin-6-yl)methyl)phenoxy)-N-(4-(pyridin-4-yl)phenyl)-6,9,12-trioxa-3-azatetradecanamide], the inhibition at 1 µM is under 25% and the inhibition at 10 µM was at least 75%.
Taken in the same sequence, the figures for `COC[C@H]1CN[C@H](C)CN1CC(=O)N1CC(C)(C)c2ncc(Cc3ccccc3OCCOCCOCCOCCOCCN[C@H](Cc3cccc(F)c3)C(=O)Nc3ccc(-c4ccncc4)cc3)cc21` [Example 74, (R)-2-(3-Fluorobenzyl)-17-(2-((1-(2-((2R,5R)-2-(methoxymethyl)-5-methylpiperazin-1-yl)acetyl)-3,3-dimethyl-2,3-dihydro-1H-pyrrolo[3,2-b]pyridin-6-yl)methyl)phenoxy)-N-(4-(pyridin-4-yl)phenyl)-6,9,12,15-tetraoxa-3-azaheptadecanamide] were under 25% and 50 to 75%.
Take `COC[C@H]1CN[C@H](C)CN1CC(=O)N1CC(C)(C)c2ncc(Cc3ccccc3OCCOCCOCCOCCOCCOCCN[C@H](Cc3cccc(F)c3)C(=O)Nc3ccc(-c4ccncc4)cc3)cc21` [Example 75, (R)-2-(3-Fluorobenzyl)-20-(2-((1-(2-((2R,5R)-2-(methoxymethyl)-5-methylpiperazin-1-yl)acetyl)-3,3-dimethyl-2,3-dihydro-1H-pyrrolo[3,2-b]pyridin-6-yl)methyl)phenoxy)-N-(4-(pyridin-4-yl)phenyl)-6,9,12,15,18-pentaoxa-3-azaicosanamide]: the inhibition at 1 µM is under 25% and the inhibition at 10 µM lay within 50 to 75%.
Taken in the same sequence, the figures for `COC[C@H]1CN[C@H](C)CN1CC(=O)N1CC(C)(C)c2ncc(Cc3ccccc3OCCOCCOCCOCCOCCOCCOCCN[C@H](Cc3cccc(F)c3)C(=O)Nc3ccc(-c4ccncc4)cc3)cc21` [Example 76, (R)-2-(3-Fluorobenzyl)-23-(2-((1-(2-((2R,5R)-2-(methoxymethyl)-5-methylpiperazin-1-yl)acetyl)-3,3-dimethyl-2,3-dihydro-1H-pyrrolo[3,2-b]pyridin-6-yl)methyl)phenoxy)-N-(4-(pyridin-4-yl)phenyl)-6,9,12,15,18,21-hexaoxa-3-azatricosanamide] were under 25% and 50 to 75%.
The compound `COC[C@H]1CN[C@H](C)CN1CC(=O)N1CC(C)(C)c2ncc(Cc3ccccc3OCCOCCOCCOCCOCCOCCOCCOCCN[C@H](Cc3cccc(F)c3)C(=O)Nc3ccc(-c4ccncc4)cc3)cc21` [Example 77, (R)-2-(3-Fluorobenzyl)-26-(2-((1-(2-((2R,5R)-2-(methoxymethyl)-5-methylpiperazin-1-yl)acetyl)-3,3-dimethyl-2,3-dihydro-1H-pyrrolo[3,2-b]pyridin-6-yl)methyl)phenoxy)-N-(4-(pyridin-4-yl)phenyl)-6,9,12,15,18,21,24-heptaoxa-3-azahexacosanamide] returned an inhibition at 1 µM of under 25% and an inhibition at 10 µM of at least 75%.
The corresponding values for `COC[C@H]1CN[C@H](C)CN1CC(=O)N1CC(C)(C)c2ncc(Cc3ccccc3OCCOCCNC[C@@H](C(=O)Nc3ccc4cnccc4c3)c3ccccc3)cc21` [Example 78, (S)-N-(Isoquinolin-6-yl)-3-((2-(2-(2-((1-(2-((2R,5R)-2-(methoxymethyl)-5-methylpiperazin-1-yl)acetyl)-3,3-dimethyl-2,3-dihydro-1H-pyrrolo[3,2-b]pyridin-6-yl)methyl)phenoxy)ethoxy)ethyl)amino)-2-phenylpropanamide] are under 25% and at least 75%.
Taken in the same sequence, the figures for `COC[C@H]1CN[C@H](C)CN1CC(=O)N1CC(C)(C)c2ncc(Cc3ccccc3OCCOCCOCCNC[C@@H](C(=O)Nc3ccc4cnccc4c3)c3ccccc3)cc21` [Example 79, (S)-N-(Isoquinolin-6-yl)-3-((2-(2-(2-(2-((1-(2-((2R,5R)-2-(methoxymethyl)-5-methylpiperazin-1-yl)acetyl)-3,3-dimethyl-2,3-dihydro-1H-pyrrolo[3,2-b]pyridin-6-yl)methyl)phenoxy)ethoxy)ethoxy)ethyl)amino)-2-phenylpropanamide] were at least 75% and at least 75%.
The corresponding values for `COC[C@H]1CN[C@H](C)CN1CC(=O)N1CC(C)(C)c2ncc(Cc3ccccc3OCCOCCOCCOCCOCCNC[C@@H](C(=O)Nc3ccc4cnccc4c3)c3ccccc3)cc21` [Example 81, (S)-N-(Isoquinolin-6-yl)-1-(2-((1-(2-((2R,5R)-2-(methoxymethyl)-5-methylpiperazin-1-yl)acetyl)-3,3-dimethyl-2,3-dihydro-1H-pyrrolo[3,2-b]pyridin-6-yl)methyl)phenoxy)-17-phenyl-3,6,9,12-tetraoxa-15-azaoctadecan-18-amide] are 50 to 75% and 25 to 50%.
In turn, `COC[C@H]1CN[C@H](C)CN1CC(=O)N1CC(C)(C)c2ncc(Cc3ccccc3OCCOCCOCCOCCOCCOCCNC[C@@H](C(=O)Nc3ccc4cnccc4c3)c3ccccc3)cc21` [Example 82, (S)-N-(Isoquinolin-6-yl)-1-(2-((1-(2-((2R,5R)-2-(methoxymethyl)-5-methylpiperazin-1-yl)acetyl)-3,3-dimethyl-2,3-dihydro-1H-pyrrolo[3,2-b]pyridin-6-yl)methyl)phenoxy)-20-phenyl-3,6,9,12,15-pentaoxa-18-azahenicosan-21-amide] came in with an inhibition at 1 µM of 25 to 50% and an inhibition at 10 µM of at least 75%.
Taken in the same sequence, the figures for `COC[C@H]1CN[C@H](C)CN1CC(=O)N1CC(C)(C)c2ncc(Cc3ccccc3OCCOCCOCCOCCOCCOCCOCCNC[C@@H](C(=O)Nc3ccc4cnccc4c3)c3ccccc3)cc21` [Example 83, (S)-N-(Isoquinolin-6-yl)-1-(2-((1-(2-((2R,5R)-2-(methoxymethyl)-5-methylpiperazin-1-yl)acetyl)-3,3-dimethyl-2,3-dihydro-1H-pyrrolo[3,2-b]pyridin-6-yl)methyl)phenoxy)-23-phenyl-3,6,9,12,15,18-hexaoxa-21-azatetracosan-24-amide] were 50 to 75% and at least 75%.
The corresponding values for `COC[C@H]1CN[C@H](C)CN1CC(=O)N1CC(C)(C)c2ncc(Cc3ccccc3OCCOCCOCCOCCOCCOCCOCCOCCNC[C@@H](C(=O)Nc3ccc4cnccc4c3)c3ccccc3)cc21` [Example 84, (S)-N-(Isoquinolin-6-yl)-1-(2-((1-(2-((2R,5R)-2-(methoxymethyl)-5-methylpiperazin-1-yl)acetyl)-3,3-dimethyl-2,3-dihydro-1H-pyrrolo[3,2-b]pyridin-6-yl)methyl)phenoxy)-26-phenyl-3,6,9,12,15,18,21-heptaoxa-24-azaheptacosan-27-amide] are 50 to 75% and 25 to 50%.
